The values below come from patent publication US8227464B2, “Substituted oxazolidinone derivatives” (Concert Pharmaceuticals, Inc., priority 2007, dated 2012).

Molecules are shown by their SMILES. Like-named read-outs stand apart in the source and are kept apart here.

The nature of data set [1]: Pharmacokinetics in male Sprague Dawley rats following oral co-dosing. The data set is classed as in vivo. On the procedure: Separate solutions of rivaroxaban and Compound 101 were prepared using 20% ethanol, 60% PEG400, 20% dimethyl isosorbide to provide a concentration of 10 mg/mL. The concentration of each solution was confirmed by HPLC prior to further use. A combination dose of rivaroxaban and Compound 101 was prepared by mixing the two solutions in a 1.09:1 ratio to yield a final concentration of 5.45 mg/mL of rivaroxaban and 5 mg/mL for Compound 101.
Two male Sprague Dawley rats were dosed by oral gavage with the combination dose containing rivaroxaban (5.45 mg/kg) and compound 101 (5 mg/kg). Blood samples (approximately 0.25 mL) were collected retro-orbitally following oral administration at 0 minutes (min) (pre-dose), 5 min, 15 min, 30 min, 1 hr, 1.5 hr, 2 hr, 4 hr, 6 hr, 8 hr, 10 hr and 24 hr post-dose. Blood samples were stored on ice and centrifuged within 15 minutes of collection to harvest plasma. The plasma was decanted immediately and frozen at −20° C. until analysis.
Analyses of plasma samples were performed using a high performance liquid chromatography/mass spectrometry (HPLC/MS/MS) method. The LC system comprised an Agilent (Agilent Technologies Inc. USA) liquid chromatograph equipped with an isocratic pump (1100 series), an autosampler (1100 series) and a degasser (1100 series). Mass spectrometric analysis was performed using an API3000 (triple-quadrupole) instrument from AB Inc (Canada) with an ESI interface. The data acquisition and control system were created using Analyst 1.4 software from ABI Inc. Data for rivaroxaban was corrected by multiplying by a factor of 0.91 to compensate for the 9% increased amount administered as compared to Compound 101.

For data set [2] the following is noted: use of rivaroxaban; Kubitza et al. 2005; cited from earlier work.
For data set [3] the following is noted: major in vivo metabolites of rivaroxaban; Weinz et al. 2004; cited from earlier work.
Where [4] appears, read: male Sprague Dawley rats, oral gavage co-dose: rivaroxaban 5.45 mg/kg (data multiplied by 0.91) and Compound 101 5 mg/kg, plasma.

By Cmax is commonly meant the maximum level reached in the sampled fluid or tissue. A word on the AUC(0-inf): it is the area under the concentration-time curve extrapolated to infinity.

With `[2H]C1([2H])OC([2H])([2H])C([2H])([2H])N(c2ccc(N3C[C@H](CNC(=O)c4ccc(Cl)s4)OC3=O)cc2)C1=O` [Compound 101, (S)-5-chloro-N-((2-oxo-3-(4-(3-oxo-2,2,5,5,6,6-d6-morpholino)phenyl)oxazolidin-5-yl)methyl)thiophene-2-carboxamide], in data set [1] (setting [4]), the “AUC∞” value was found to be 3424.33 ng·h/mL and the maximum concentration (Cmax) came to 962 ng/mL. Besides, in data set [1] (rats, oral co-dosing), the “increase in AUC as compared to rivaroxaban” value is reported as “greater than 16%” and the “increase in Cmax as compared to rivaroxaban” value was “greater than 14%”.
Take `O=C(NC[C@H]1CN(c2ccc(N3CCOCC3=O)cc2)C(=O)O1)c1ccc(Cl)s1` [Rivaroxaban, 5-chloro-N-[2-oxo-3-[4-(3-oxomorpholin-4-yl)phenyl]oxazolidin-5(S)-ylmethyl]thiophene-2-carboxamide, reference compound]: the AUC(0-inf) in data set [1] (rat, male Sprague Dawley rats, oral gavage co-dose: rivaroxaban 5.45 mg/kg (data multiplied by 0.91) and Compound 101 5 mg/kg, plasma) is 2930 ng·h/mL. Besides, the maximum concentration (Cmax) in data set [1] (rat, male Sprague Dawley rats, oral gavage co-dose: rivaroxaban 5.45 mg/kg (data multiplied by 0.91) and Compound 101 5 mg/kg, plasma, read-out: Cmax) amounted to 842 ng/mL. The adverse events result in data set [2] was “ageusia (loss of taste), ecchymosis (bruising) and headache”.
In the case of `O=C(O)CNC(=O)c1ccc(Cl)s1` [Compound M4], the activity of metabolite result in data set [3] was “Neither metabolite is active”.
